# Assays:
# Soleus GLUT4 = experiment: Activation of Soleus GLUT4 in STZ diabetic rats; type: in vivo, rat
# Experimental: Administering a combination of Medica16αα and insulin was performed by treating STZ diabetic rats (FBG >300 mg/dl) with oral MEDICA16αα(15 mg/kg b.i.d) for five consecutive days, then MEDICA16αα-responsive rats were further treated with MEDICA16αα(15 mg/kg b.i.d) for 10 additional consecutive days (“STZ/MEDICA Res”), and MEDICA16αα non-responsive rats (FBG >250 mg/dl) were further treated for 10 additional consecutive days with either insulin Neutral Protamine Hagedorn (NPH) (3 u/kg b.i.d subcutaneously) (“STZ/NPH”), or with insulin NPH (3 u/kg b.i.d subcutaneously in combination with oral MEDICA16αα(15 mg/kg b.i.d) (“STZ/MEDICA NPH”).
# Muscle tissue was fixed with 4% buffered formaldehyde for 4 hours. Paraffin sections (5 μm) were rehydrated and antigen retrieved in citrate buffer using a Biocare pressure cooker, followed by 5 minutes blocking in peroxidase and 10 minutes of protein block (Cas-Block). The sample was incubated with anti-GLUT4 antibody (AbCam ab65267), followed by polyclonal anti-mouse IgG. DAB substrate buffer was then added to achieve coloration. The specimens were subsequently dehydrated with ethanol, cleared with xylene and then mounted on glass cover slips. Digital images were obtained using Nikon Eclipse TE-2000E microscope equipped with Olympus DP70 camera. Image analysis was carried out using ImageJ software. […]
# Protein lysates were prepared in sodium dodecyl sulfate (SDS) sample buffer (62 mM Tris (pH 6.8), 2.3% SDS, […] mercaptoethanol, 10% glycerol), and were subjected to SDS-PAGE, electro-transferred onto cellulose nitrate membranes (Schleicher & Schuell) and probed with the indicated first antibody, followed by HRP-labeled second antibody. Protein concentration was determined by BCA (Thermo Scientific). Bands were detected by ECL, and the intensity of individual bands was determined by densitometry using ImageJ 1.48 v software.
# NOD mice [1] = experiment: Islet insulitis scoring in NOD mice; type: in vivo, mouse; conditions: 14-week old pre-diabetic NOD mice
# Text: Head of pancreas of NOD mice was sampled, fixed in 4% buffered formalin, embedded in paraffin, and […] sections were stained with hematoxylin/eosin. Insulitis scores 0 to 4 were verified by the percentage of intra-islet mononuclear granulation (“0”, no intra-islet mononuclear cell infiltration; “1”, <25% of islet being infiltrated with mononuclear cell granulation; “2”, 25%-50%; “3”, 50-75%; “4”, >75%), in 30 to 40 islets per pancreas.
# NOD mice [2] = experiment: IPGTT in pre-diabetic NOD mice; type: in vivo, mouse; conditions: 14-week and 24-week old NOD mice
# Experimental: Overnight fasted NOD mice were injected i.p (2 gr/kg bw) with standard 20% dextrose solution. Tail vein blood was sampled on 0, 15, 30, 60, 90 and 120 minutes. Blood glucose was measured by glucometer. Plasma insulin prior to and 30 min following glucose injection was measured using Ultrasensitive Mouse Insulin ELISA kit (Crystal Chem).
# NOD mice [3] = experiment: Hyperinsulinemic-euglycemic clamp in pre-diabetic NOD mice; type: in vivo, mouse
# Experimental: Clamps were carried out according to Vanderbilt Mouse Metabolic Phenotyping Center, Vanderbilt University School of Medicine protocol (28), with minor modifications, using HPLC-purified ^3H-glucose (specific activity 13.5 Ci/mmol, MT-914 Moravek Biochemicals, priming dose of 1 μC followed by continuous infusion of 0.05 μCi·min-1 for a 90 min equilibration period), HumulinR insulin (Eli Lilly, 4 mU·kg-1. min-1), and 10% glucose solution.
# Clamps were carried out in conscious 12-14-week old NOD female mice fasted for 3 hours, 3 days following catheters' insertion. […] Plasma glucose specific activity was verified on 80, 90, 100, and 120 min following insulin infusion. On 120 min, 12-μCi bolus of ^14C-2-deoxyglucose (DG) (specific activity 274.6 mCi/mmol, MC-392 Moravek Biochemicals) was injected, followed by blood sampling on 122, 125, 130, 135, and 145 min, to determine blood glucose and 2-deoxyglucose activity.
# Upon sacrifice, gastrocnemius, superficial vastus lateralis, and soleus muscles were removed, immediately frozen in liquid nitrogen, and stored at −70° C. until further analysis. Glucose appearance (Ra) and disappearance (Rd) were determined using Steele non-steady-state equations. Endogenous glucose production (EndoRt) was determined by subtracting the glucose infusion rate (GIR) from total glucose turnover (Rt). Glucose metabolic index in muscle (Rg) was calculated by the equation:
# [formula] where 2[^14C]DGPtissue is the 2[^14C]DG radioactivity in muscle normalized to tissue weight (dpm/g tissue), AUC 2[^14C]DGplasma is the area under the plasma 2[^14C]DG disappearance curve (dpm·min·m1-1), and [arterial glucose] is the average blood glucose (mmol/1) during the 80-120 min clamp period. Immuno-Histochemistry
compound,measurement,setting,value
"CC(C)(CCCCCCCCCCCCC(C)(C)C(=O)O)C(=O)O [MEDICA16αα, 2,2,15,15-tetramethylhexadecane-1,16-dioic acid]",soleus AKT (phospho-Akt(Ser473)),Soleus GLUT4,activated
same,soleus AMPK (phospho-ACC(Ser79)),Soleus GLUT4,activated
same,soleus phospho-AS160(Thr642),Soleus GLUT4,increase in phosphorylated AS160(Thr642)
same,islet insulitis rankings versus non-treated,NOD mice [1],essentially similar
same,pre-diabetic IPGTT profile,NOD mice [2],normalizing
same,glucose-stimulated plasma insulin,NOD mice [2]; first 30 min of IPGTT,remained unaffected
same,clamped plasma insulin,NOD mice [3],decrease
same,deoxyglucose uptake into soleus and gastrocnemius muscles,NOD mice [3],insulin-induced deoxyglucose uptake
same,endogenous glucose production,NOD mice [3],insulin-induced decrease
same,increase in glucose infusion rate (GIR),NOD mice [3],37%
same,total body glucose turnover,NOD mice [3],increase

# — patent publication US10512624B2, “Long-chain amphipathic dicarboxylic acids for treatment of diabetes type-1” (Syndromex Ltd., priority 2016, dated 2019)
